Experimental data taken from US20050234113A1, “Antioxidant and radical scavenging activity of synthetic analogs of desferrithiocin” (University of Florida Research Foundation, Inc., priority 2002, published 2005).
“Also recorded” adds a separate entry of the source. Marks after values point to notes of the source that are not given here.

What was measured:
[1] = Quenching of the ABTS radical cation
Method: The iron chelators were tested for their ability to quench the radical cation formed from 2,2′-azinobis(3-ethylbenzothiazoline-6-sulfonic acid) (ABTS) by the method of Re et al. in Free Radic. Biol. Med. 26, 1231-1237 (1999). Briefly, a stock solution of ABTS radical cation was generated by mixing ABTS (10 mM, 2.10 mL) with K2S2O8 (8.17 mM, 0.90 mL) in H2O and […] deep blue-green ABTS radical cation was diluted in sufficient sodium phosphate (10 mM, pH 7.4) to give an A734 of about 0.900. Test compounds were added to a final concentration ranging from 1.25 to 15 μM, and the decrease in A734 was read after 1, 2, 4 and 6 min. The reaction was largely complete by 1 min, but the data presented are based on a 6-min reaction time.
In this assay, a fairly stable radical cation, ABTS^+, was examined, and Trolox, an analog of vitamin E, was used as a positive control. Briefly, the procedure involved generating the blue-green chromophore by the reaction of ABTS with K2S2O8. The radical has absorption maxima at λ=415, 645, 734, and 815 nm. The change in absorbance at 734 nm was noted 6 min after addition of the chelator of interest at various concentrations, and the slope of the ΔA734 vs. ligand concentration line was calculated.
The iron chelators were tested for their ability to quench the radical cation formed from 2,2′-azinobis(3-ethylbenzothiazoline-6-sulfonic acid) (ABTS) by a published method (Re, R., et al., Free Radical Biol. Med. 26:1231-1237 (1999). Briefly, a stock solution of ABTS radical cation was generated by mixing ABTS (10 mM, 2.10 mL) with K2S2O8 (8.17 mM, 0.90 mL) in H2O and allowing the solution to sit in the dark at room temperature for 18 hours. This stock solution of deep blue-green ABTS radical cation was diluted in sufficient sodium phosphate (10 mM, pH 7.4) to give an A734 of about 0.900. Test compounds were added to a final concentration ranging from 1.25 to 15 μM, and the decrease in A734 was read after 1, 2, 4 and 6 min. The reaction was largely complete by 1 min, but the data presented are based on a 6-min. reaction time.
This radical cation decolorization assay utilizes the pre-formed radical monocation of 2,2′-azinobis(3-ethylbenzothiazoline-6-sulfonic acid) (ABTS) and has been used to evaluate the antioxidant capacity of a large number of compounds and mixtures. Briefly, the change in absorbance of the blue-green chromophore was recorded after the addition of the chelator of interest at each of the different concentrations, and the slope of the ΔA734 vs. ligand concentration line was calculated. The positive control for this reaction was Trolox, an analogue of vitamin E. The decrease in A734 as a function of ligand concentration is the comparitor among the five compounds evaluated. Trolox, L1, DFO, (S)-4′-(HO)-DADMDFT and BDU (Table 3). All four of the iron chelators performed better than Trolox; DFO≈BDU>(S)-4′-(HO)-DADMDFT>L1>Trolox. Thus, all of these ligands could be expected to serve as excellent radical scavengers.

iron-loaded hepatocytes = settings: cited from earlier work
[2] = test system: acetic acid-induced colitis; assay: Acetic acid-induced colitis in rats, densitometric image analysis of colonic damage; assay type: in vivo
Method: (§1) The ligands were administered to the rats intracolonically as a suspension or solution in distilled water (2 mL) at a dose of 650 μmol kg^−1. The drug solutions were made fresh for each experiment. ROWASA®, the pharmaceutical preparation which contains 5-ASA (2 mL, 66.7 mg mL^−1) was given at a dose of 2318 μmol kg^−1. Control rats received distilled water (2 mL), administered intracolonically.
(§2) Animal care and experimental procedures were approved by the Institutional Animal Care and Use Committee. Colitis was induced by a modification of published methods. Briefly, the rats were anesthetized with sodium pentobarbital, 55 mg kg^−1 intraperitoneally. The abdomen was shaved and prepared for surgery. A midline incision was made, and the cecum and proximal colon were exteriorized. A reversible suture was placed at the junction of the cecum and proximal colon. The colon was rinsed with saline (10 mL), and the fluid and intestinal contents were gently expressed out the rectum. A gum-based rectal plug was inserted. The compound of interest, or distilled water in the control animals (2 mL), was injected intracolonically just distal to the ligature. The cecum and proximal colon were returned to the abdominal cavity; the compound was allowed to remain in the gut for 30 min. Then, the cecum and proximal colon were reexteriorized. The rectal plug was removed, and the drug was gently expressed out of the colon. Acetic acid (4%, 2 mL) was injected into the proximal colon over a 15-20-second time period. The acid was allowed to remain in the gut until one minute had passed (i.e., 40-45 seconds after the end of the acid administration). The no acid control rats received distilled water (2 mL), which was administered in the same manner as was the acetic acid. Air (10 mL) was then injected into the proximal colon to expel the acid or water. The cecal/proximal colon ligature was removed, the gut was returned to the abdominal cavity, and the incisions were closed. The animals were allowed to recover overnight and were sacrificed 24 hr later. The entire length of the colon was removed and assessed for damage both densitometrically and biochemically.
Gross damage was quantitated using Photoshop-based image analysis (version 5.0, Adobe Systems, Mountain View, Calif., USA) on an Apple iMac computer. The Magic Wand tool in the Select menu of Photoshop was used to place the cursor on an area of obvious damage. The tolerance level of the Magic Wand tool was set at 30. The damaged areas were automatically selected by using the Similar command in the Select menu. Then, the Eyedropper tool was used to determine the range of the damage in the highlighted areas. Individual colon images were copied to a blank Photoshop page. The Magic Wand tool, with a tolerance set to 100, was used to select all of the pixels in the colon sample. Then, the Histogram tool, which generates a graph in which each vertical line represents the number of pixels associated with a brightness level, was selected in the Image menu. The Red channel was then selected; the darker (damaged areas) appear on the left side of the histogram and the lighter (normal) areas are on the right side. The cursor was then placed on the histogram, the color range determined in an earlier step was selected, and the number of pixels encompassing that range and the percent damage were quantified automatically.
Two means were employed to assess the damage to the colon in the presence and absence of ligand, computer-based image analysis and colonic MPO measurement. The densitometric method removes much of the subjectivity involved in the simple scoring approaches. A digital image of the prepared colonic tissue is taken, and a clearly damaged segment is highlighted on the screen. Once the computer identifies all other segments of the intestine with the same or greater damage, a pixel number is generated; this number makes it possible to calculate the percentage of damaged intestine.

[3] = Quenching of the ABTS radical cation; settings: Table 5; 6-min reaction, initial OD 1.000
[4] = test system: Myeloperoxidase (MPO) activity in colonic tissue; assay: Myeloperoxidase (MPO) assay in colonic tissue of rats with acetic acid-induced colitis; assay type: in vivo; settings: 650 μmol kg^−1 intracolonically 30 min before 4% acetic acid, mean ± standard deviation
Method: as §1, §2
The activity of MPO was measured in colonic tissue by a modification of the method of Krawisz et al. in Gastroenterology 87, 1344-1350 (1984). Each excised colon was homogenized in 9 volumes of homogenization buffer (0.5% hexadecyltrimethylammonium bromide (HDTMA) in 50 mM sodium acetate, pH 6.0); this homogenate was centrifuged at 1200 g for 20 min at 4° C. A sample of the supernatant (1.8 mL) was transferred into a microcentrifuge tube and stored frozen at −20° C. for up to one week. Prior to assay, the thawed aliquot was centrifuged at about 10,000 g for 15 minutes at 4° C. The final supernatant (33 μL) was added to a solution of o-dianisidine HCl (0.17 mg mL^−1 in 50 mM sodium acetate, pH 6.0, made fresh daily and filtered immediately before use) (950 μL), the mixture was vortexed, and the peroxidase reaction was initiated by the addition of H2O2 to 50 mM sodium acetate, pH 6.0, made fresh daily (16.7 μL). The A470 at room temperature (ca. 23° C.) was read at 15-second intervals for 2 min. The rates were assessed graphically and are presented as change in milliabsorbance units (ΔmAU)/min per g tissue. Under these conditions, 0.1 “Unit” of purified human leukocyte myeloperoxidase (Sigma M-6908) produced a ΔA470 of about 400 mAU/min.
The biochemical measurement involves measuring the level of MPO in a sample of homogenate of the whole rat colon. When the colon is damaged by the acetic acid, there is an extravasation of neutrophils. The extent of this infiltration can serve as a quantitative marker for tissue damage. Although other leukocytes, such as eosinophils and monocytes, also contribute to the inflammatory response, their contribution is small; the majority of the cells recruited during the acute inflammatory response are neutrophils. […]

[5] = Prevention of iron-mediated oxidation of ascorbate (ascorbate-mediated reduction of Fe(III)); settings: ascorbate 100 μM, FeCl3 30 μM, pH 7.4, ligand/Fe ratios 0-3, 40 min
Method: (§3) The iron chelators were tested for their ability to diminish the iron-mediated oxidation of ascorbate by the method of Dean and Nicholson (Free Radical Res. 20, 83-101 (1994)). Briefly, a solution of freshly prepared ascorbate (100 μM) in sodium phosphate buffer (5 mM, pH 7.4) was incubated in the presence of FeCl3 (30 μM) and chelator (ligand/Fe ratios varied from 0-3) for 40 min. The A265 was read at 10 and 40 min; the ΔA265 in the presence of ligand was compared to that in its absence.
The role of chelators in either inhibition or promotion of the Fenton reaction is related to their capacity to prevent Fe(III) from being reduced to Fe(II). Fe(II) is required for the reduction of H2O2 to HO. and HO^−. The assay involves spectrophotometrically monitoring the disappearance of ascorbate at pH 7.4 in the presence of FeCl3 and chelator at several ligand/Fe ratios. Under these conditions, ascorbate is oxidized to an L-ascorbyl radical anion. This anion then disproportionates to dehydroascorbic acid and ascorbate.
as §3, with “chelators nitrilotriacetic acid (NTA), 1,2-dimethyl-3-hydroxypyridin-4-one (L1), desferrioxamine B (DFO), (S)-4′-(HO)-DADMDFT, and (S,S)-1,11-Bis[5-(4-carboxyl-4,5-dihydro-1,3-thiazol-2-yl)-2,4-dihydroxyphenyl]-4,8-dioxaundecane (BDU)” for “chelators”, “Nicholson, Free” for “Nicholson (Free”, “20:” for “20,”, “(1994).” for “(1994)).”
The measurement examines the disappearance of ascorbate. It is known that DFO, a hydroxamate chelator that forms a 1:1 complex with Fe(III) at a formation constant of approximately 10^31 M^−1, prevents ascorbate-mediated reduction of Fe(III); it serves as a positive control in the present study. Both NTA and L1 promote ascorbate-mediated reduction of Fe(III) and serve as negative controls.

[6] = Table 1, A734, six-minute reaction, pH 7.4, 1.25 to 15 μM

Row | SMILES | Slope × 10^3 OD units/μM (ABTS radical cation quenching) [1, 6] | effect on iron-mediated oxidative DNA damage (in words) (iron-loaded hepatocytes) | Damage (%) ([2]; 650 μmol kg^−1 intracolonically 30 min before 4% acetic acid, mean ± standard deviation) | protection against acetic acid-induced colonic damage (in words) ([2]; intracolonic, image analysis and MPO assay) | Slope × 10^3 OD units/μM (ABTS radical cation quenching) [3] | MPO activity [4] | effect on ascorbate-mediated reduction of Fe(III) (in words) [5] | effect on ascorbate-mediated reduction of Fe(III) (in words) ([5]; listed as 1,2-dimethyl-3-hydroxypyridin-4-one) | Slope × 10^3 OD units/μM (ABTS radical cation quenching) ([1]; Table 3, A734, 6-min reaction, values marked b are the inventors' unpublished results)
1 | C[C@]1(C(=O)O)CSC(c2ncccc2O)=N1 [DFT, desferrithiocin] | −0.9 × 10^3 OD units/μM | prevented damage | – | – | – | – | – | – | –
2 | C[C@]1(C(=O)O)CSC(c2ccc(O)cc2O)=N1 [4′-(HO)-DADFT] | −105.6 × 10^3 OD units/μM | – | 62 ± 10% | did not protect | −106 × 10^3 OD units/μM | 64192 ± 30802 mAU min^−1g of colonic tissue^−1 | – | – | –
3 | Cc1c(O)c(=O)ccn1C [Compound L1, 1,2-Dimethyl-3-hydroxypyridin-4-one, reference compound] | −52.9 × 10^3 OD units/μM | potentiated iron-mediated oxidative DNA damage | – | – | – | – | promoted the reaction; also recorded: promoted ascorbate-mediated reduction of Fe(III) | increased the rate of iron(III) reduction | −53^b × 10^3 OD units/μM
